Measured values from patent publication US20220031605A1, “TARGETED DRUG DELIVERY SYSTEM TO BE USED IN TREATING OSTEOMYELITIS” (EGE UNIVERSITESI, priority 2018, published 2022).

Test system: Staphylococcus Aureus
Assay: In vivo osteomyelitis model (Staphylococcus Aureus injected to proximal tibia), radiograph and hematological analysis
Parameters: species or system Wistar albino rats
Conditions: rat osteomyelitis model
Method: Wistar albino rats were operated on, and osteomyelitis model was established by injecting Staphylococcus Aureus pathogen to the proximal tibia. In order to determined that the osteomyelitis model was formed, Xray (Radiograph) image was taken. The animals that were determined to have osteomyelitis, were separated into 3 groups, as the gelatin nanoparticle comprising gentamicin (I), free drug (II) and control (III) groups, and they were included in the treatment with 2-4 injections a weak. 100-300 μl, gelatin nanoparticle comprising gentamicin, free form (commercial gentamicin and physiological saline solution was injected intravenously into the tail vein of the groups I, II, and III respectively. On the 14th day following the commencement of treatment, a radiograph was taken in order to track the treatment process. Hematological analysis was carried out during the treatment and after the treatment. The lymphocyte reference range for rats was 1.4-9.4×10^3/μL. As a result of the haemogram carried out on healthy rats, the lymphocyte value was 7.4×10^3/μL.

## gentamicin [Free gentamicin]
intravenous, tail vein, after 6 doses, reference range 1.4-9.4, healthy rats 7.4
  Lymphocyte number following 6 dose stherapy: 12.6 10^3/μL
Radiograph following 6 doses of therapy, compared with image 14 days after model establishment
  Radiograph finding after therapy: abscess was present, bone integrity was not yet formed and healing was only present on the periost
